Measured values from patent US12130282B2, “Universal fluorescence assay of high affinity ligand transport” (priority 2018, dated 2024).
Values joined by “and” are separate entries in the source; they are usually repeats but may differ in a detail not shown here. Equal values may be shown once. Read-outs that look alike come from different tables or passages of the source.

Experiments:
EcoFepA-FM = biological target: T1, EcoFepA-FM (Escherichia coli, UniProt P05825, A720C); test: Fluorescence quenching binding of ferric catecholates to E. coli OKN13/pEcoFepA-FM; details: summary of Table 2 for both KpnFepA-FM and EcoFepA-FM fluorescent sensors
T1 construct: expressed in transfected cells; host or cells: E. coli OKN13 (ΔtonB, ΔfepA), low-copy plasmid pHSG575 derivative
T1 sequence (P05825 23-746 A720C): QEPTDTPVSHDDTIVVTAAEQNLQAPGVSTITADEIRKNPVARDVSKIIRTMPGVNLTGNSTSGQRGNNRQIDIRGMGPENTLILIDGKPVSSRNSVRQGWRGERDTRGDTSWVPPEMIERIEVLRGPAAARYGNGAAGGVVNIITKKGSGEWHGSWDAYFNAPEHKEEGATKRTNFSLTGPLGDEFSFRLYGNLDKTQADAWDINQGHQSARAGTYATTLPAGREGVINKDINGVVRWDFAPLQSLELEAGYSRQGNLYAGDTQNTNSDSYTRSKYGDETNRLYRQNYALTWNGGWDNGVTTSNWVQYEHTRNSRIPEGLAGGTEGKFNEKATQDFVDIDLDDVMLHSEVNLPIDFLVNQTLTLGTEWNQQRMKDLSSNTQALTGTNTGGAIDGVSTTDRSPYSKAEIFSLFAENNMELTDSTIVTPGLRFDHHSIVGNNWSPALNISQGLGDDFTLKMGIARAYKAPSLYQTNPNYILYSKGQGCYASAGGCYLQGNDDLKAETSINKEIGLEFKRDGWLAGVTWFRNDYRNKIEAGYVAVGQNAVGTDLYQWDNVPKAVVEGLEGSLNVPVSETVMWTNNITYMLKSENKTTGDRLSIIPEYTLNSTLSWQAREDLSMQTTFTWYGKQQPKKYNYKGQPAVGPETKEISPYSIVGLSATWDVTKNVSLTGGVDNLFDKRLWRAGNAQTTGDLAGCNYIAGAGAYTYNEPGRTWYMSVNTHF
Text: (§1) Affinity determinations by spectroscopic analyses The analytical capabilities of the fluorescence spectroscopic determinations stood out when we compared the recognition of FeEnt and its glucosylated form, FeGEnt (also known as ferric salmochelin), by EcoFepA and KpnFepA. The ability of Gram (−) pathogens, including K. pneumoniae, to glucosylate enterobactin and transport FeGEnt enhances their invasiveness, in part because glucosylation impairs recognition of the iron complex by lipocalins. Additionally, whereas E. coli K12 contains a single chromosomal fepA locus that encodes its FeEnt transporter, pathogenic K. pneumoniae contain at least three fepA orthologs (chromosomal loci 1658, 4984; plasmid PII locus 0027). IroN of Salmonella typhimurium has a role in FeGEnt uptake; its closest ortholog in K. pneumoniae is plasmid-mediated fepA0027. […]
(§2) Fluorescence modifications of Cys-mutant proteins. […]
(§3) Fluorescence spectroscopy. We observed fluorophore-labeled cells in an SLM AMINCO 8100 fluorescence spectrometer, upgraded with an OLIS operating system and software (OLIS SpectralWorks, OLIS Inc., Bogart, GA), to control its shutters, polarizers and data collection. We also utilized an OLIS Clarity fluorescence spectrometer for fluorescence assays of ferric catecholate binding.

K. pneumoniae Kp52.145 = test: FD sensor assay of FeEnt uptake rate by test strain (sensor OKN13/pEcoFepA-FM); assay type: cell-based
Description: FIG. 7. Uptake rates from FD assays. At t=60 s we added varying concentrations of FeEnt [(0.5 nM (green); 1 nM (yellow); 5 nM (orange); 10 nM (red)] to sensor strain OKN13/pEcoFepA-FM in the presence of test strain K. pneumoniae isolate Kp52.145. 10 nM FeEnt gave maximal quenching. For 1 and 5 nM FeEnt, at half-saturation (blue dashed line) we determined the slope of the time course (black dashed line) and the elapsed time (dashed red line). Either parameter estimated the transport rate of the test strain (see text).
Transport rates from spectroscopic analyses. The rate of fluorescence recovery in the spectroscopic system correlates to the rate of ligand depletion by bacterial transport, and comparisons of test strains in universal FD uptake assays reiterated this point. The various ESKAPE bacteria conferred fluorescence recovery at different rates (FIG. 3B). FeEnt binding at 100 s quenched the fluorescence of the FD sensor strain, E. coli OKN13/pEcoFepA-FM. […] But, the fluorescence of the E. coli strain reflected FeEnt uptake by other bacteria in the same solution: as they decreased [FeEnt] by cellular transport the intensity of OKN13/pEcoFepA-FM returned to initial levels (as described in FIG. 1B). The assay monitored FeEnt uptake by E. coli expressing chromosomal (Eco; cyan) or plasmid-mediated (Eco/pfepA+; blue) FepA, and ESKAPE species K. pneumoniae (Kpn; red), A. baumannii (Aba; gold), P. aeruginosa (Pae; green), E. cloacae (Ecl; magenta). […]
Species-specific fluorescence assay of FeEnt uptake: KpnFepA-FM. […] For species-specific ferric siderophore transport assays of Gram (−) bacteria we added an iron complex to 2×10^7 labeled cells in a quartz cuvette (final volume, 2 mL) with stirring at 37° C., and monitored the time course of fluorescence emissions at 520 nm. […] After addition of the ferric siderophore, we monitored the time-course of fluorescence emissions at 520 nm for 15-30 minutes, with stirring. […]

[1] = tested on: chromosomally expressed FepA in E. coli; details: cited from earlier work
EcoFepA = biological target: T2, EcoFepA (Escherichia coli, UniProt P05825); details: read-out: Kd, previous determinations; cited from earlier work
T2 construct: expressed in transfected cells; host or cells: E. coli OKN3 (ΔfepA), plasmid pITS23 (pHSG575, ecofepA+)
T2 sequence (P05825 23-746): as the sequence (P05825 23-746 A720C) above, with C698A counted along it

[2] = tested on: KpnFepA-FM (KpnFepA0027_T210C); test: Fluorescence quenching binding of ferric catecholates to E. coli OKN13/pKpnFepA-FM; set-up: species or system K. pneumoniae; details: adsorption to KpnFepA
Text: as §1, §2, §3

LmoHbp2 [3] = details: read-out: Kd, radioisotopic; cited from earlier work
LmoHbp2_S154C-CPM = test: Hemin titration of purified LmoHbp2-CPM, fluorescence quenching; assay type: binding, Listeria monocytogenes; details: purified LmoHbp2-CPM 30 nM, 1-255 nM hemin, triplicate
Description: We substituted Cys for residue S154 in NEAT1 of LmoHbp2, expressed and purified the binding protein, and covalently modified it with coumarin maleimide (CPM). Introduction of Cys in NEAT-1 of LmoHbp2 allowed its modification by extrinsic fluorophores, transforming the purified binding protein into a sensitive sensor whose emissions inversely related to [Hn]. […] The experiment was performed in triplicate; the mean values, with standard deviations, are shown. […] When we mixed Hbp2-CPM with heterologous bacteria in solution, it reflected their hemin uptake. Addition of hemin at 300 s quenched LmoHbp2-CPM emissions, but fluorescence rebounded as bacteria {L. monocytogenes (Lmo; blue), B. subtilis (Bsu; gold), S. aureus (Sau; red), V. cholerae (Vch; green)} transported the porphyrin and depleted it from solution. […]
For fluorescence spectroscopic determinations of Gram (+) bacterial heme acquisition we used the FD sensor LmoHbp2_S154C-CPM. […] For measurements of Hn uptake by heterologous bacteria we suspended the LmoHbp2_S154C-CPM sensor protein at 30 nM in PBS+0.2% glucose in a 2 mL cuvette, added Hn to 15 nM after 300 s, and then added iron-starved bacterial cells at 600 s, to a final concentration of 5×10^7/mL, and monitored fluorescence for 2 h.

LmoHbp2 [4] = details: read-out: Kd, isocalorimetric; cited from earlier work

Compound | Kd (EcoFepA-FM) | time required to deplete 5 nM FeEnt to 0.38 nM (half-saturation) (K. pneumoniae Kp52.145; 10^7 cells/mL K. pneumoniae Kp52.145) [s] | mean uptake rate over the first 520 s (K. pneumoniae Kp52.145; 10^7 cells/mL K. pneumoniae Kp52.145, 5 nM FeEnt) [pMol/10^9 cells/min] | Vmax (K. pneumoniae Kp52.145; K. pneumoniae Kp52.145, mean rate ÷ 0.8) | Vmax [1] | Kd (EcoFepA) [nM] | fold lower affinity than FeEnt [2] [fold] | Kd (LmoHbp2 [3]) [nM] | Kd (LmoHbp2_S154C-CPM) [nM] | Kd (LmoHbp2 [4]) [nM]
O=C(N[C@H]1COC(=O)[C@@H](NC(=O)c2cccc([O-])c2[O-])COC(=O)[C@@H](NC(=O)c2cccc([O-])c2[O-])COC1=O)c1cccc([O-])c1[O-].[Fe+3] [FeEnt, ferric enterobactin] | ~0.38 nM and 0.4 nM | 520 | 53 | ≈ 66 pMol/10^9 cells/min | 50-100 pMol/min/10^9 cells | 0.2 to 0.5 | – | – | – | –
O=C(N[C@H]1COC(=O)[C@@H](NC(=O)c2cc([C@@H]3O[C@H](CO)[C@@H](O)[C@H](O)[C@H]3O)cc(O)c2O)COC(=O)[C@@H](NC(=O)c2cc([C@@H]3O[C@H](CO)[C@@H](O)[C@H](O)[C@H]3O)cc(O)c2O)COC1=O)c1cccc(O)c1O.[Fe+3] [FeGEnt, ferric salmochelin] | 6 to 280 nM | – | – | – | – | – | 20 | – | – | –
hemin | – | – | – | – | – | – | – | 12 | 12 ± 3.1 | 25 to 48
